Source: patent publication US20070259856A1, “Method for Activating Trpv4 Channel Receptors by Agonists” (priority 2004, published 2007)
Marks after values point to notes of the source that are not given here.

What was measured:
TRPV4 channel receptor [1] = biological target: T1, TRPV4 channel receptor (Bos taurus, UniProt A0A8F4X677); experiment: Ca2+ influx in bovine articular chondrocytes (FlexStation); format: cell-based; conditions: bovine chondrocytes
T1 construct: endogenous in cells; host or cells: bovine articular chondrocytes
T1 sequence (A0A8F4X677 1-871): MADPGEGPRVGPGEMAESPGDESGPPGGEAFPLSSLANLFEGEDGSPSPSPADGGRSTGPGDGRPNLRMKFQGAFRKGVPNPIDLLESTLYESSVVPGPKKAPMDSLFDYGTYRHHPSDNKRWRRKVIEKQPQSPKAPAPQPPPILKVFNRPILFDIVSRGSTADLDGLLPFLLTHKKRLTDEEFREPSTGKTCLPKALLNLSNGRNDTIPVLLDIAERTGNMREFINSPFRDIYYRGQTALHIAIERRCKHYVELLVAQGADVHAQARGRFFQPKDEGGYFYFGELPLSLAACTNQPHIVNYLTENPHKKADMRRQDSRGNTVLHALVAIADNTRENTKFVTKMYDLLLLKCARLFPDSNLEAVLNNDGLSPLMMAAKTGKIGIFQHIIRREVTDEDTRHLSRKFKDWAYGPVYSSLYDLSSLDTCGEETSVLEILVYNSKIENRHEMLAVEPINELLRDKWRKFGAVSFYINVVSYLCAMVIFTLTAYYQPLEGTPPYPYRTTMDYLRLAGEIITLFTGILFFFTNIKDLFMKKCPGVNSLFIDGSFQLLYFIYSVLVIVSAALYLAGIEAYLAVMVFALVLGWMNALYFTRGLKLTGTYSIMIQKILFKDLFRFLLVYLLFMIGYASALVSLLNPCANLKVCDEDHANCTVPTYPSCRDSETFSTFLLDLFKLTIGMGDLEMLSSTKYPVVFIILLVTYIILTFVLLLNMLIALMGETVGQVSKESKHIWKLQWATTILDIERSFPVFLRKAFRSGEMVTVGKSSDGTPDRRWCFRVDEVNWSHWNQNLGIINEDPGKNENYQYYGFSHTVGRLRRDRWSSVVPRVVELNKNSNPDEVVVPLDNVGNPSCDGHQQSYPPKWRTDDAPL

aggrecanase = experiment: IL-1 induced aggrecanase production, chondrocyte-based aggrecanase peptide cleavage assay; format: cell-based, bovine; conditions: Bos taurus
Description: Aggrecanases (ADAMTSs), in conjunction with MMPs, degrade aggrecan, one of the major matrix components in articular cartilage. […] 2003; 48(1): 119-133].

[2] = tested on: bovine articular cartilage explants; experiment: IL-1 induced aggrecan degradation (GAG release, DMMB) in bovine articular cartilage explants; format: cell-based; conditions: Bos taurus; IL-1-stimulated bovine cartilage
Description: Articular cartilage explants isolated from newborn calves at slaughter were placed in culture, and aggrecan degradation was initiated through stimulation with IL-1. Since aggrecan degradation in this model is believed to be mediated by aggrecanase, TRPV4 channel receptor agonists that are active in the chondrocyte-based aggrecanase peptide assay (Example 11) may also be effective inhibitors in the cartilage explant assay, presumably by blocking aggrecanase production in these tissues.
At the end of the culture period, conditioned media were assayed for glycosaminoglycan (GAG) levels by colorimetric (DMMB) assay as a measure of aggrecan degradation. In bovine explants, IL-1 induced a profound increase in the amount of GAG released into the media during the 3 day culture. When cartilage was treated with IL-1 in combination with Formula IIc, there was a concentration-dependent reduction in GAG release as shown in Table 5.

human cartilage explants = experiment: Aggrecan degradation (GAG, DMMB) in human cartilage explants; format: cell-based; conditions: for GAG Mean ± SEM: cumulative, 21 days
Method: Because the progression of aggrecan degradation in response to IL-1 in human cartilage is slower than in bovine cartilage, culture media was removed and replaced with fresh treatments every 2-3 days for approximately 3 weeks. For each timepoint, GAG levels were measured by DMMB assay, and cumulative data released over the entire 3 week culture period was calculated.
The data represents cumulative aggrecan degradation after 21 days in culture. […] In addition, Formula IId caused a concentration-dependent reduction of IL-1-induced aggrecan degradation. […] The estimated IC50's shown in Table 7 are very similar to those IC50's calculated from IL-1-stimulated bovine cartilage.

[3] = tested on: bovine articular cartilage explants; experiment: IL-1 induced collagen degradation (hydroxyproline) in bovine articular cartilage explants; format: cell-based
Method: IL-1 stimulates collagen degradation in bovine articular cartilage explants after extended (−2-3 weeks) exposure to IL-1. Collagen breakdown was evaluated by measuring the levels of hydroxyproline, a major component of hydrolyzed collagen fibrils, using a colorimetric assay that is understood in the art. Bovine articular cartilage was stimulated with IL-1 for 18 days, in the absence or presence of Formula Ib or Formula IId (both at 1 uM). Media was removed and replaced every 2-4 days with fresh IL-1 and compound through day 18. As has been shown previously, aggrecan degradation precedes collagen breakdown in IL-1-stimulated bovine cartilage explants. Once aggrecan depletion had been achieved by day 10, media were analyzed for collagen breakdown using the hydroxyproline assay.

[4] = tested on: HEK293 MSRII cells without human TRPV4 vector; experiment: Whole cell patch clamp, HEK293 MSRII cells exposed to BacMam virus alone; format: cell-based; conditions: 3 μM
TRPV4 channel receptor [5] = biological target: T2, TRPV4 channel receptor (Homo sapiens, UniProt Q9HBA0); experiment: Ca2+ influx in human articular chondrocytes (FlexStation)
T2 sequence (Q9HBA0 whole entry): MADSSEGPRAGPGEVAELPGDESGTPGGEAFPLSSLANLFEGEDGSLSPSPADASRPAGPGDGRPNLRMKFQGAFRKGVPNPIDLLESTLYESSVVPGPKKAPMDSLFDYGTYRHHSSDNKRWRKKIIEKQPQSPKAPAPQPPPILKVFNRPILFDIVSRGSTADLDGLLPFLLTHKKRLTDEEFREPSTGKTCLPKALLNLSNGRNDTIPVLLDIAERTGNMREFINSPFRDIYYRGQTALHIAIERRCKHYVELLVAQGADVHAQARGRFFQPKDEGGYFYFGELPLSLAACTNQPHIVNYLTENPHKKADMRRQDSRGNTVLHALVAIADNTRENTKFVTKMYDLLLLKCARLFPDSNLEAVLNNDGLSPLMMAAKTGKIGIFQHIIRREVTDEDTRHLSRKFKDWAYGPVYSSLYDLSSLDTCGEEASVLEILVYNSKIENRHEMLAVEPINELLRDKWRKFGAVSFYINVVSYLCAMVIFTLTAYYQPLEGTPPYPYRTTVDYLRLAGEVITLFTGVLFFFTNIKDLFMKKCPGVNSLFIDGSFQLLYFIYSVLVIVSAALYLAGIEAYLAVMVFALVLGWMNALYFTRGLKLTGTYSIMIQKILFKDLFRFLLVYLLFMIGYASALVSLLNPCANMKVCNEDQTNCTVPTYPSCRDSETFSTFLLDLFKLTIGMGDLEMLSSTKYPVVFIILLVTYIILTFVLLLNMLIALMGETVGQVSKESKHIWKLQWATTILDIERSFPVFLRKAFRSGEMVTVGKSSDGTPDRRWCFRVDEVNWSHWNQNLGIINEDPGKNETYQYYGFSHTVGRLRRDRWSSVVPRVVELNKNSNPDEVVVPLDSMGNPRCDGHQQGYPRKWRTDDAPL

TRPV4 channel receptor [6] = biological target: T2, TRPV4 channel receptor; experiment: Whole cell patch clamp, HEK293 MSRII cells transduced with human TRPV4 BacMam virus; format: cell-based; parameters: V5-His (from the vector's name only); expressed in transfected cells; host or cells: HEK293
Description: Functional, cell-based assays presently utilized to evaluate the activity of TRPV4 channel receptor agonists (e.g., FLIPR) provide an indirect, downstream measure of channel activation or blockage. In order to more directly evaluate a compound's effect on TRPV4 channel receptor, procedures to electrophysiologically record current flow through TRPV4 channels have been established. These procedures utilize HEK293 MSRII cells transiently transduced with 5% human TRPV4 BacMam virus, a standard extracellular physiological saline solution, and a well established, potassium channel-blocking electrode (internal) solution (Vriens et al., PNAS, 2004). Standard whole cell patch clamp techniques were used to maintain cells at a holding potential of 0 mV between inductions of 200 msec, −100 mV to +100 mV ramp protocols every 5 seconds. The inset of FIG. 1 represents the inward and outward current amplitude at −100 mV and +100 mV, respectively, during each ramp protocol prior to (baseline) and throughout the administration of 100 nM Formula IId. The main body of FIG. 1 illustrates the recorded current flow in response to a −100 mV to +100 mV ramp at the five specific times labelled in the inset.

For `CC(C)C[C@H](NC(=O)c1cc2ccccc2s1)C(=O)N[C@@H]1CCCN(S(=O)(=O)c2ccccc2C#N)CC1=O` [Formula IId, N-{(1s)-1-[({(4r)-1-[(2-Cyanophenyl)Sulfonyl]-3-Oxohexahydro-1H-Azepin-4-Yl}Amino)Carbonyl]-3-Methylbutyl}-1-Benzothiophene-2-Carboxamide], the “Ca Influx - FLEX (bovine) % effic.” value (TRPV4 channel receptor [1]) was 79%, the EC50 (TRPV4 channel receptor [1]; read-out: Ca Influx - FLEX (bovine) EC50) was 120 nM and the IC50 (aggrecanase) was 40 nM. For the same molecule, the IC50 [2] was 10 nM, the inhibition at 0.01 µM (human cartilage explants; Homo sapiens, IL-1 (100 ng/ml), 0.01 uM, relative to IL-1 stim. GAG release) was 35% and the inhibition at 0.1 µM (human cartilage explants; Homo sapiens, IL-1 (100 ng/ml), 0.1 uM, relative to IL-1 stim. GAG release) was 89%. The inhibition at 1 µM (human cartilage explants; Homo sapiens, IL-1 (100 ng/ml), 1 uM, relative to IL-1 stim. GAG release) was > 100%, the inhibition at 0.01 µM (human cartilage explants; Homo sapiens, unstimulated, 0.01 uM, relative to control GAG release) was 12% and the inhibition at 0.1 µM (human cartilage explants; Homo sapiens, unstimulated, 0.1 uM, relative to control GAG release) was 34%. The inhibition at 1 µM (human cartilage explants; Homo sapiens, unstimulated, 1 uM, relative to control GAG release) was 45%, the IC50 (human cartilage explants; Homo sapiens, estimated, 3-point concentration response) was 30 nM and the “GAG Mean ± SEM” value (human cartilage explants; IL-1 (100 ng/ml), 0.01 uM) was 15.9 ± 1.6 µg/mg. For the same molecule, the “GAG Mean ± SEM” value (human cartilage explants; IL-1 (100 ng/ml), 0.1 uM) was 8.2 ± 0.5 µg/mg, the “GAG Mean ± SEM” value (human cartilage explants; IL-1 (100 ng/ml), 1 uM) was 4.8 ± 0.5 µg/mg and the “% inhibition” value (human cartilage explants; IL-1 (100 ng/ml), 1 uM, relative to IL-1 stim. GAG release) was 113** %. For the same molecule, the “blocking of aggrecan degradation in unstimulated human cartilage explants” value (human cartilage explants; absence of IL-1) was “effective in blocking aggrecan degradation”, the “GAG Mean ± SEM” value (human cartilage explants; unstimulated control, 0.01 uM) was 5.9 ± 0.3 µg/mg and the “GAG Mean ± SEM” value (human cartilage explants; unstimulated control, 0.1 uM) was 4.4 ± 0.2 µg/mg. For the same molecule, the “GAG Mean ± SEM” value (human cartilage explants; unstimulated control, 1 uM) was 3.7 ± 0.3 µg/mg, the “block of IL-1-induced collagen degradation” value [3] was “partially, but effectively, blocked” and the “effect on membrane currents” value [4] was “no measurable effect”. For the same molecule, the EC50 (TRPV4 channel receptor [5]; Ca Influx - FLEX (human) EC50, human chondrocytes) was 110 nM, the “Ca Influx - FLEX (human) % effic.” value (TRPV4 channel receptor [5]; human chondrocytes) was 179% and the “TRPV4 channel receptor-mediated current” value (TRPV4 channel receptor [6]; 100 nM, -100 mV to +100 mV ramp) was “activated a human TRPV4 channel receptor”. For the same molecule, the “lowest concentration observed to activate the human TRPV4 channel receptor” value (TRPV4 channel receptor [6]; whole cell patch clamp) was 10 nM.
